In patent US9622987B2, “Synergistic pharmaceutical composition useful for the treatment of lung cancer” (Council of Scientific & Industrial Research, priority 2012, dated 2017):

System: Lung Cancer cell Line (A-549)
Test: Cell death / viability of A549 lung cancer cells exposed to vapour (MTT, trypan blue)
Assay type: cell-based
Conditions: for activity so far lung cancer cell death is concerned (FIG. 1C): vapors of single compounds, 1:2000 dilution, 48 h, A549
Procedure: The lung cancer cell line, A-549 were cultured in DMEM (Dulbecco's Modified Eagle Medium) containing Earle's salts and non-essential amino acids supplemented with 10% fetal calf serum, penicillin (100 U/ml) and streptomycin (100 μg/ml) in a humidified 95% O2/5% CO2 atmosphere at 37° C. Confluent cells were subcultured by trypsinization and subsequently seeded in 6 well culture plates containing DMEM with essential supplements.
After CVp treatment, cells were washed with PBS, trypsinized and re-suspended in complete growth medium. Trypan blue (0.4%) was added to the cell suspension and both live and dead cells were counted using a heamocytometer.
Cell viability was determined by performing MTT assay (Chemicon, Temecula, Calif., USA) according to manufacturer's instructions. Briefly, cells were plated in 96 well plates. Overnight after cell plating, cells were incubated with CVp. Briefly, 10 μL of 3-(4,5-dimethylthiazol-2-yl)-2-5-diphenyl tetrazolium bromide (MTT) was added to each well for 4 h at 37° C. After solubilization in 100 μL 1(N) isopropanol/0.04(N) HCl, absorbance was read at 595 nm in microplate reader (Thermo Electron Corporation, MA, USA).
The vapors generated from each of these wells were exposed to cells at 1:2000 dilution for 48 h. […] We therefore used the vapor from these combined compounds which is henceforth termed as Combined Vapour (CVp=C2+C3+C4).

Row | SMILES | Activity in vapour form % of cell death for Lung Cancer cell Line (A-549) [%] | activity so far lung cancer cell death is concerned (FIG. 1C)
1 | C=C(C)[C@@H]1CC[C@@H](C)C[C@H]1O [Compound C3, Isopulegol] | 36.0 ± 4.5 | –
2 | CC(C)=CCCC(C)CC=O (stereo not drawn) [Compound C1, Citronellal] | 12.5 ± 3.6 | poor activity
3 | C=C(C)C1CCC(C)CC1O (stereo not drawn) [Compound C2, Neo-isopulegol] | 30.5 ± 5.0 | –
4 | CC(C)=CCCC(C)CCO (stereo not drawn) [Compound C4, Citronellol] | 70.0 ± 6.0 | highest activity
